Tests used:
Experiment in all cases: KINOMEscan (ScanMAX) kinase profiling
Type in all cases: binding
panel of 468 kinases [1] = target: T1, panel of 468 kinases (Homo sapiens, UniProt O14936); details: CASK; 1 μM; read-out: % control
T1 construct: purchased KINOMEscan (ScanMAX) service
T1 sequence (O14936 1-926): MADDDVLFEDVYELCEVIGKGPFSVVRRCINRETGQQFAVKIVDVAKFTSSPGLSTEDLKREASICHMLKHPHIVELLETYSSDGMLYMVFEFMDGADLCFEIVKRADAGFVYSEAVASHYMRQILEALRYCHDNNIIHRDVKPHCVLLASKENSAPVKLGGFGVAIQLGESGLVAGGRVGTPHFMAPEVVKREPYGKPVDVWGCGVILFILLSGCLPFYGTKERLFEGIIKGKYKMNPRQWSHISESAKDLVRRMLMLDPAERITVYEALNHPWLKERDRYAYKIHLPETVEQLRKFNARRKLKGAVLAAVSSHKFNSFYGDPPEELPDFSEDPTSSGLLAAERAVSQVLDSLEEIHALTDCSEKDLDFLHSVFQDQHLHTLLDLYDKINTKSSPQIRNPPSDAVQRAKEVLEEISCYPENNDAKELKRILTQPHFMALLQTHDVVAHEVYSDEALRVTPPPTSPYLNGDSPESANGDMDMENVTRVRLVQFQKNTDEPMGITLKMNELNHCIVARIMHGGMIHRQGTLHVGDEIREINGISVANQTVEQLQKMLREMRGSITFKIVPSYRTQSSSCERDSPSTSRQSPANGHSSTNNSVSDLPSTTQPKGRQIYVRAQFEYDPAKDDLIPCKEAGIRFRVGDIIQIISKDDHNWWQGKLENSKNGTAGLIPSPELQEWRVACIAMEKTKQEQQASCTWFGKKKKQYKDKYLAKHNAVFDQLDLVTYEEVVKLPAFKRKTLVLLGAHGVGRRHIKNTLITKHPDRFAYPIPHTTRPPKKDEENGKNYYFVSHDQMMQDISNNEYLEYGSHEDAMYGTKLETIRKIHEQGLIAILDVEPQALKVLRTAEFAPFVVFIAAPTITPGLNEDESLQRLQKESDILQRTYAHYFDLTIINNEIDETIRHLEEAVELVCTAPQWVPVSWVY

panel of 468 kinases [2] = target: T2, panel of 468 kinases (Homo sapiens, UniProt Q8TF76); details: HASPIN; 1 μM; read-out: % control
T2 construct: purchased KINOMEscan (ScanMAX) service
T2 sequence (Q8TF76 1-798): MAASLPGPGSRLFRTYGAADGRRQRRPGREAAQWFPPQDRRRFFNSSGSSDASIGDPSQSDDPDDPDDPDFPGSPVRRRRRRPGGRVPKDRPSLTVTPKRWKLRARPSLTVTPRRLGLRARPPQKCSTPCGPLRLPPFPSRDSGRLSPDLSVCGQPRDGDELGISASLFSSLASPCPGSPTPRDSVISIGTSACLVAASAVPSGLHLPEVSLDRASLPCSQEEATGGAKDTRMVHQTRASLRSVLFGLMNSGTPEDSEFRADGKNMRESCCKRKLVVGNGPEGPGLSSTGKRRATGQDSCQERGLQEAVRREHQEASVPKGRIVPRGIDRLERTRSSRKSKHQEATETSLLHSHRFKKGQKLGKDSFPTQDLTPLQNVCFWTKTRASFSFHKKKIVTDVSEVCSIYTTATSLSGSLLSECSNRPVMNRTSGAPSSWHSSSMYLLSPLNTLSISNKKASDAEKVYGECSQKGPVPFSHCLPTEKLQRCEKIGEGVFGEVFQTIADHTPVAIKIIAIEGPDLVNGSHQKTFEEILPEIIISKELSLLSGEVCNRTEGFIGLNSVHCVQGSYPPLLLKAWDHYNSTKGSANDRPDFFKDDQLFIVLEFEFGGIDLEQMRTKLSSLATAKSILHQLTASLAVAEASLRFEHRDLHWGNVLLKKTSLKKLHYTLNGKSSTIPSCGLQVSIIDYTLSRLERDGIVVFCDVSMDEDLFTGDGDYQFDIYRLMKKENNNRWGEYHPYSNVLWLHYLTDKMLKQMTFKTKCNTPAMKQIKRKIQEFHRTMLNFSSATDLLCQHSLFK

panel of 468 kinases [3] = target: T3, panel of 468 kinases (Homo sapiens, UniProt O15075); details: DCAMKL1; 1 μM; read-out: % control
T3 construct: purchased KINOMEscan (ScanMAX) service
T3 sequence (O15075 whole entry): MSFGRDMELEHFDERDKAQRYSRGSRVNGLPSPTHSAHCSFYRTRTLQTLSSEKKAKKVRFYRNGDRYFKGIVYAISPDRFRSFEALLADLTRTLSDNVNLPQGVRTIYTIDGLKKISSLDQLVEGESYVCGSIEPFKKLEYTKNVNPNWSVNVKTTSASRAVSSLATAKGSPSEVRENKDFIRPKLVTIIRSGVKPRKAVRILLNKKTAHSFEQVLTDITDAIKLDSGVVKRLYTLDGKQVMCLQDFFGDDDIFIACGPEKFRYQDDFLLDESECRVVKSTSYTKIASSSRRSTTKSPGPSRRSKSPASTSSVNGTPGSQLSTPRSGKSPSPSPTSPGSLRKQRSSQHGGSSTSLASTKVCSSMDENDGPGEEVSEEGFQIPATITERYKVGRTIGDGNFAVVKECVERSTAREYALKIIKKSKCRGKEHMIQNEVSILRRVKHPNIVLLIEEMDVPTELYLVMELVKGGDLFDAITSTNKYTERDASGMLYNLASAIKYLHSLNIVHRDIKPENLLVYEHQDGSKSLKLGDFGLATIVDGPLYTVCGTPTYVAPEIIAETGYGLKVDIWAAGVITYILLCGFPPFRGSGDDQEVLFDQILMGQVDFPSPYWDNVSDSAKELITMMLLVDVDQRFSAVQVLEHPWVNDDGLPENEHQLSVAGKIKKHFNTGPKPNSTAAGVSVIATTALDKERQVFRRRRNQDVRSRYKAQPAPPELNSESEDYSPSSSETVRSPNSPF

| Structure (SMILES) | remaining binding at 1 µM (panel of 468 kinases [1]) [%] | remaining binding at 1 µM (panel of 468 kinases [2]) [%] | remaining binding at 1 µM (panel of 468 kinases [3]) [%] |
| --- | --- | --- | --- |
| CNc1nc(Nc2ccc(S(=O)(=O)N3CCC(N4CCOCC4)CC3)cc2OC)nc2[nH]cc(Cl)c12 [Compound 12, 5-chloro-N2-(2-methoxy-4-((4-morpholinopiperidin-1-yl)sulfonyl)phenyl)-N4-methyl-7H-pyrrolo[2,3-d]pyrimidine-2,4-diamine] | 90 | 29 | 94 |
| CNc1nc(Nc2ccc(C(=O)N3CCC(N4CCOCC4)CC3)c3c2OCO3)nc2[nH]cc(Cl)c12 [Compound 75, (7-((5-chloro-4-(methylamino)-7H-pyrrolo[2,3-d]pyrimidin-2-yl)amino)benzo[d][1,3]dioxol-4-yl)(4-morpholinopiperidin-1-yl)methanone] | 99 | 25 | 74 |
| CNc1nc(Nc2ccc(P3(=O)CCN(C4CCOCC4)CC3)cc2OC)nc2[nH]cc(Cl)c12 [Compound 77, 4-(4-((5-chloro-4-(methylamino)-7H-pyrrolo[2,3-d]pyrimidin-2-yl)amino)-3-methoxyphenyl)-1-(tetrahydro-2H-pyran-4-yl)-1,4-azaphosphinane 4-oxide] | 95 | 35 | 74 |

Reference: patent publication US12479847B2 (DANA-FARBER CANCER INSTITUTE, INC., priority 2019, dated 2025)
